Reference: PMC11239830, “Synthetic macrolides overcoming MLSBK-resistant pathogens” (Cell Discovery, 2024)
≈ marks a conversion by molar mass, not a printed value. Where two headings read alike, the source gives them in different places.

Tests used:
Assay in all cases: MIC, broth microdilution
S. pneumoniae = type: cell-based, Streptococcus pneumoniae
Description: (§1) MICs were determined by the microdilution method according to the Clinical and Laboratory Standards Institute guidelines. […] Finally, the 96-well plates were incubated at 37 °C for 16–20 h to observe and record the results. […] The assay for MICs was replicated at least three times.

S. pyogenes = type: cell-based, Streptococcus pyogenes
Description: as §1

H. influenzae = type: cell-based, Haemophilus influenzae
Description: as §1

S. aureus = type: cell-based, Staphylococcus aureus
Description: as §1

[1] = Streptococcus pneumoniae, ATCC49619, S. pneumoniae ATCC49619, Ery-S, read-out: MIC
[2] = Streptococcus pneumoniae, S. pneumoniae 07P390, c-ermB, read-out: MIC
[3] = Streptococcus pneumoniae, S. pneumoniae PU09, mef, read-out: MIC
[4] = Streptococcus pyogenes, S. pyogenes 01-968, i-ermTR (Table S5), read-out: MIC
[5] = Streptococcus pyogenes, S. pyogenes 12-206, c-ermB (Table S5), read-out: MIC
[6] = Streptococcus pyogenes, S. pyogenes 12-206, c-ermTR, read-out: MIC
[7] = Haemophilus influenzae, ATCC49247, H. influenzae ATCC49247, Azi-S, read-out: MIC
[8] = Staphylococcus aureus, S. aureus 15B196, c-ermB, read-out: MIC
[9] = Staphylococcus aureus, S. aureus PU32, i-ermA, read-out: MIC

| SMILES | MIC (S. pneumoniae; [1]) | MIC (S. pneumoniae; [2]) | MIC (S. pneumoniae; [3]) | MIC (S. pyogenes; [4]) | MIC (S. pyogenes; [5]) | MIC (S. pyogenes; [6]) | MIC (H. influenzae; [7]) | MIC (S. aureus; [8]) | MIC (S. aureus; [9]) | MIC (S. pyogenes; S. pyogenes 12-206, c-ermTR) | MIC (S. aureus; S. aureus 15B196, c-ermB) | MIC (S. aureus; S. aureus PU32, i-ermA) | MIC (S. pneumoniae; S. pneumoniae 07P390, c-ermB) | MIC (S. pneumoniae; S. pneumoniae ATCC49619, Ery-S) | MIC (S. pneumoniae; S. pneumoniae PU09, mef) | MIC (S. pyogenes; S. pyogenes 01-968, i-ermTR (Table S5)) | MIC (S. pyogenes; S. pyogenes 12-206, c-ermB (Table S5)) | MIC (H. influenzae; H. influenzae ATCC49247, Azi-S) |
| --- | --- | --- | --- | --- | --- | --- | --- | --- | --- | --- | --- | --- | --- | --- | --- | --- | --- | --- |
| CC[C@H]1OC(=O)[C@H](C)[C@@H](OC(=O)NCCCCCCC#Cc2ccc3c(=O)n(CC(=O)O)cnc3c2)[C@H](C)[C@@H](O[C@@H]2O[C@H](C)C[C@H](N(C)C)[C@H]2O)[C@](C)(OC)C[C@@H](C)C(=O)[C@H](C)[C@H]2NC(=O)O[C@@]21C [88l] | 0.25 µg/mL (≈ 0.258 µM) | 256 µg/mL (≈ 264 µM) | 0.25 µg/mL (≈ 0.258 µM) | 8 µg/mL (≈ 8.26 µM) | 256 µg/mL (≈ 264 µM) | 256 µg/mL (≈ 264 µM) | 256 µg/mL (≈ 264 µM) |  |  |  |  |  |  |  |  |  |  |  |
| CC[C@H]1OC(=O)[C@H](C)[C@@H](OC(=O)NCCCCCCC#Cc2ccc3cc(C(=O)O)cnc3c2)[C@H](C)[C@@H](O[C@@H]2O[C@H](C)C[C@H](N(C)C)[C@H]2O)[C@](C)(OC)C[C@@H](C)C(=O)[C@H](C)[C@H]2NC(=O)O[C@@]21C [88j] | 0.5 µg/mL (≈ 0.534 µM) | > 256 µg/mL | 1 µg/mL (≈ 1.07 µM) |  |  | 128 µg/mL (≈ 137 µM) | 128 µg/mL (≈ 137 µM) | > 256 µg/mL | 8 µg/mL (≈ 8.54 µM) |  |  |  |  |  |  |  |  |  |
| CC[C@H]1OC(=O)[C@H](C)[C@@H](OC(=O)NCCCCCCC#Cc2ccc3c(=O)c(C(=O)O)cn(C4CC4)c3c2)[C@H](C)[C@@H](O[C@@H]2O[C@H](C)C[C@H](N(C)C)[C@H]2O)[C@](C)(OC)C[C@@H](C)C(=O)[C@H](C)[C@H]2NC(=O)O[C@@]21C [88c] | ≤ 0.008 µg/mL |  | ≤ 0.008 µg/mL |  |  | 0.5 µg/mL (≈ 0.503 µM) |  | 8 µg/mL (≈ 8.05 µM) | 2 µg/mL (≈ 2.01 µM) | 1 µg/mL (≈ 1.01 µM) | 4 µg/mL (≈ 4.03 µM) | 1 µg/mL (≈ 1.01 µM) |  |  |  |  |  |  |
| CC[C@H]1OC(=O)[C@H](C)[C@@H](OC(=O)NCCCCCCC#Cc2ccc3c(=O)[nH]cnc3c2)[C@H](C)[C@@H](O[C@@H]2O[C@H](C)C[C@H](N(C)C)[C@H]2O)[C@](C)(OC)C[C@@H](C)C(=O)[C@H](C)[C@H]2NC(=O)O[C@@]21C [88k] |  |  |  |  |  |  |  |  |  |  |  |  | 128 µg/mL (≈ 141 µM) | 0.06 µg/mL (≈ 0.0659 µM) | 0.5 µg/mL (≈ 0.549 µM) | 1 µg/mL (≈ 1.1 µM) | 32 µg/mL (≈ 35.2 µM) | 64 µg/mL (≈ 70.3 µM) |
| CCC1OC(=O)C(C)C(OC(=O)NCCOCCCC#Cc2ccc3c(=O)c(C(=O)O)cn(C4CC4)c3c2)C(C)C(OC2OC(C)CC(N(C)C)C2O)C(C)(OC)CC(C)C(=NOC)C(C)C2OC(=O)OC12C (stereo not shown) [71c] | ≤ 0.008 µg/mL | 0.12 µg/mL (≈ 0.117 µM) | ≤ 0.008 µg/mL |  |  | 2 µg/mL (≈ 1.95 µM) | 32 µg/mL (≈ 31.2 µM) | 256 µg/mL (≈ 250 µM) | 4 µg/mL (≈ 3.9 µM) |  |  |  |  |  |  |  |  |  |
| CC[C@H]1OC(=O)[C@H](C)[C@@H](OC(=O)NCCCCCc2ccc3c(c2)c(=O)c(C(N)=O)cn3C2CC2)[C@H](C)[C@@H](O[C@@H]2O[C@H](C)C[C@H](N(C)C)[C@H]2O)[C@](C)(OC)C[C@@H](C)C(=NOC)[C@H](C)[C@H]2OC(=O)O[C@@]21C [59b] |  |  |  |  |  |  |  |  |  | 64 µg/mL (≈ 65 µM) | > 256 µg/mL | 128 µg/mL (≈ 130 µM) | 64 µg/mL (≈ 65 µM) | 0.25 µg/mL (≈ 0.254 µM) | 1 µg/mL (≈ 1.02 µM) |  |  | > 256 µg/mL |
| CC[C@H]1OC(=O)[C@H](C)[C@@H](OC(=O)NCCCCC#Cc2ccc3c(c2)c(=O)c(C(=O)O)cn3C2CC2)[C@H](C)[C@@H](O[C@@H]2O[C@H](C)C[C@H](N(C)C)[C@H]2O)[C@](C)(O)C[C@@H](C)CN(C)[C@H](C)[C@H]2OC(=O)O[C@@]21C [109a] |  |  |  |  |  |  |  |  |  | 128 µg/mL (≈ 132 µM) | 256 µg/mL (≈ 265 µM) | 32 µg/mL (≈ 33.1 µM) | 256 µg/mL (≈ 265 µM) | 1 µg/mL (≈ 1.03 µM) | 2 µg/mL (≈ 2.07 µM) |  |  | 32 µg/mL (≈ 33.1 µM) |
| CC[C@H]1OC(=O)[C@H](C)[C@@H](OC(=O)NCCNCCC#Cc2ccc3c(=O)c(C(=O)O)cn(C4CC4)c3c2)[C@H](C)[C@@H](O[C@@H]2O[C@H](C)C[C@H](N(C)C)[C@H]2O)[C@](C)(OC)C[C@@H](C)C(=NOC)[C@H](C)[C@H]2OC(=O)O[C@@]21C [74c] |  |  |  |  |  |  |  |  |  | 2 µg/mL (≈ 1.98 µM) | 256 µg/mL (≈ 253 µM) | 8 µg/mL (≈ 7.92 µM) | 0.5 µg/mL (≈ 0.495 µM) | 0.016 µg/mL (≈ 0.0158 µM) | 0.12 µg/mL (≈ 0.119 µM) |  |  | 16 µg/mL (≈ 15.8 µM) |
| CC[C@H]1OC(=O)[C@H](C)[C@@H](OC(=O)NCCCCCCC#Cc2ccc3c(=O)c(C(=O)O)cn(C)c3c2)[C@H](C)[C@@H](O[C@@H]2O[C@H](C)C[C@H](N(C)C)[C@H]2O)[C@](C)(OC)C[C@@H](C)NC(=O)[C@H](C)[C@@H](O)[C@]1(C)O [126g] | 0.06 µg/mL (≈ 0.0627 µM) | 2 µg/mL (≈ 2.09 µM) | 0.12 µg/mL (≈ 0.125 µM) |  |  | 2 µg/mL (≈ 2.09 µM) | 4 µg/mL (≈ 4.18 µM) | 16 µg/mL (≈ 16.7 µM) | 2 µg/mL (≈ 2.09 µM) |  |  |  |  |  |  |  |  |  |
| CC[C@H]1OC(=O)[C@H](C)[C@@H](OC(=O)NCCCCCCC#Cc2ccc3c(=O)c4c(O)cc(O)cc4oc3c2)[C@H](C)[C@@H](O[C@@H]2O[C@H](C)C[C@H](N(C)C)[C@H]2O)[C@](C)(OC)C[C@@H](C)C(=O)[C@H](C)[C@H]2NC(=O)O[C@@]21C [88m] | 4 µg/mL (≈ 4.03 µM) | 16 µg/mL (≈ 16.1 µM) | 1 µg/mL (≈ 1.01 µM) | 16 µg/mL (≈ 16.1 µM) | 32 µg/mL (≈ 32.3 µM) | 32 µg/mL (≈ 32.3 µM) | 16 µg/mL (≈ 16.1 µM) |  |  |  |  |  |  |  |  |  |  |  |
| CCC1OC(=O)C(C)C(OC(=O)NCCCCCCCc2ccc3c(=O)c(C(=O)O)cn(C4CC4)c3c2)C(C)C(OC2OC(C)CC(N(C)C)C2O)C(C)(OC)CC(C)C(=NOC)C(C)C2OC(=O)OC12C (stereo not shown) [61c] | ≤ 0.008 µg/mL | 0.5 µg/mL (≈ 0.493 µM) | ≤ 0.008 µg/mL |  |  | 2 µg/mL (≈ 1.97 µM) | > 256 µg/mL | 64 µg/mL (≈ 63.2 µM) | 8 µg/mL (≈ 7.9 µM) |  |  |  |  |  |  |  |  |  |
| CC[C@H]1OC(=O)[C@H](C)[C@@H](OC(=O)NCCCCCC#Cc2ccc3c(c2)c(=O)c(C(=O)O)cn3C2CC2)[C@H](C)[C@@H](O[C@@H]2O[C@H](C)C[C@H](N(C)C)[C@H]2O)[C@](C)(O)C[C@@H](C)CN(C)[C@H](C)[C@H]2OC(=O)O[C@@]21C [110a] |  |  |  |  |  |  |  |  |  | 512 µg/mL (≈ 522 µM) | 256 µg/mL (≈ 261 µM) | 16 µg/mL (≈ 16.3 µM) | 256 µg/mL (≈ 261 µM) | 1 µg/mL (≈ 1.02 µM) | 2 µg/mL (≈ 2.04 µM) |  |  | 32 µg/mL (≈ 32.6 µM) |
| CCC1OC(=O)C(C)C(OC(=O)NCCCCCCCc2ccc3c(c2)c(=O)c(C(=O)O)cn3C2CC2)C(C)C(OC2OC(C)CC(N(C)C)C2O)C(C)(OC)CC(C)C(=NOC)C(C)C2OC(=O)OC12C (stereo not shown) [61a] | 0.12 µg/mL (≈ 0.118 µM) | 64 µg/mL (≈ 63.2 µM) | 0.5 µg/mL (≈ 0.493 µM) |  |  | 32 µg/mL (≈ 31.6 µM) | > 256 µg/mL | 256 µg/mL (≈ 253 µM) | 8 µg/mL (≈ 7.9 µM) |  |  |  |  |  |  |  |  |  |
| CC[C@H]1OC(=O)[C@H](C)[C@@H](OC(=O)NCCCCCC#Cc2ccc3c(=O)c(C(=O)O)cn(C4CC4)c3c2)[C@H](C)[C@@H](O[C@@H]2O[C@H](C)C[C@H](N(C)C)[C@H]2O)[C@](C)(OC)C[C@@H](C)C(=O)[C@H](C)[C@H]2NC(=O)O[C@@]21C [87c] | ≤ 0.008 µg/mL | 0.06 µg/mL (≈ 0.0613 µM) | 0.03 µg/mL (≈ 0.0306 µM) |  |  | 1 µg/mL (≈ 1.02 µM) | 8 µg/mL (≈ 8.17 µM) | 64 µg/mL (≈ 65.4 µM) | 1 µg/mL (≈ 1.02 µM) |  |  |  |  |  |  |  |  |  |
| CCC1OC(=O)C(C)C(OC(=O)NCCCCCC#Cc2ccc3c(=O)c(C(=O)O)cn(C4CC4)c3c2)C(C)C(OC2OC(C)CC(N(C)C)C2O)C(C)(OC)CC(C)C(=NOC)C(C)C2OC(=O)OC12C (stereo not shown) [57c] | ≤ 0.008 µg/mL | 0.5 µg/mL (≈ 0.495 µM) | 0.06 µg/mL (≈ 0.0595 µM) |  |  | 1 µg/mL (≈ 0.991 µM) | 8 µg/mL (≈ 7.93 µM) | 16 µg/mL (≈ 15.9 µM) | 4 µg/mL (≈ 3.96 µM) |  |  |  |  |  |  |  |  |  |
| CC[C@H]1OC(=O)[C@H](C)[C@@H](OC(=O)NCCCOCCC#Cc2ccc3cc(C(=O)O)cnc3c2)[C@H](C)[C@@H](O[C@@H]2O[C@H](C)C[C@H](N(C)C)[C@H]2O)[C@](C)(OC)C[C@@H](C)C(=O)[C@H](C)[C@H]2NC(=O)O[C@@]21C [95j] | 1 µg/mL (≈ 1.06 µM) | > 256 µg/mL | 8 µg/mL (≈ 8.52 µM) |  |  | 128 µg/mL (≈ 136 µM) | 128 µg/mL (≈ 136 µM) | > 256 µg/mL | 64 µg/mL (≈ 68.1 µM) |  |  |  |  |  |  |  |  |  |
